# Reference: ChEMBL document CHEMBL1649270, “ST-246 inhibits in vivo poxvirus dissemination, virus shedding, and systemic disease manifestation” (2009)
# Activity calls are given as the source filed them. The calls are words filed in the database; no cut-off is given here.
# Tests used:
# Vaccinia virus WR [1] = assay: Antiviral activity against Vaccinia virus WR ATCC VR-1354 infected through percutaneous route in BALB/c mouse assessed as reduction of viral load in brain at 100 mg/kg, po qd measured after 5 days postinfection by RT-PCR analysis relative to control; format: functional
# Vaccinia virus WR [2] = assay: Antiviral activity against Vaccinia virus WR ATCC VR-1354 infected through percutaneous route in BALB/c mouse assessed as inhibition of virus dissemination in brain at 100 mg/kg, po qd for 3 to 14 days by RT-PCR analysis; format: functional, organism-based; design: dose 100 mg/kg
# Vaccinia virus WR [3] = assay: Antiviral activity against Vaccinia virus WR ATCC VR-1354 infected through dermal scarification route in BALB/c mouse assessed as reduction of viral load in spleen at 100 mg/kg, po qd measured after 14 days postinfection by RT-PCR analysis relative to control; format: functional, organism-based; design: dose 100 mg/kg
# Vaccinia virus WR [4] = assay: Antiviral activity against Vaccinia virus WR ATCC VR-1354 infected through percutaneous route in BALB/c mouse assessed as reduction of viral load in spleen at 100 mg/kg, po qd measured after 5 days postinfection by RT-PCR analysis relative to control; format: functional
# Vaccinia virus WR [5] = assay: Antiviral activity against Vaccinia virus WR ATCC VR-1354 infected through intraperitoneal route in BALB/c mouse assessed as protection against virus-induced systemic disease symptoms at 100 mg/kg, po qd measured after 9 days postinfection; format: functional, organism-based; design: dose 100 mg/kg
# Vaccinia virus WR [6] = assay: Antiviral activity against Vaccinia virus WR ATCC VR-1354 infected through dermal scarification route in BALB/c mouse assessed as reduction of viral load in spleen at 100 mg/kg, po qd measured after 5 days postinfection by RT-PCR analysis relative to control; format: functional
# Vaccinia virus WR [7] = assay: Antiviral activity against Vaccinia virus WR ATCC VR-1354 infected through percutaneous route in BALB/c mouse assessed as reduction of viral load in spleen at 100 mg/kg, po qd measured after 13 days postinfection by RT-PCR analysis relative to control; format: functional, organism-based; design: dose 100 mg/kg
# Vaccinia virus WR [8] = assay: Antiviral activity against Vaccinia virus WR ATCC VR-1354 infected through intravenous route in BALB/c mouse assessed as reduction of viral load in brain at 100 mg/kg, po qd measured after 14 days postinfection by RT-PCR analysis relative to control; format: functional, organism-based; design: dose 100 mg/kg
# Vaccinia virus WR [9] = assay: Antiviral activity against Vaccinia virus WR ATCC VR-1354 infected through intraperitoneal route in BALB/c mouse assessed as reduction of viral load in liver at 100 mg/kg, po qd measured after 5 days postinfection by RT-PCR analysis relative to control; format: functional, organism-based; design: dose 100 mg/kg
# Vaccinia virus WR [10] = assay: Antiviral activity against Vaccinia virus WR ATCC VR-1354 infected through percutaneous route in BALB/c mouse assessed as protection against hypothermia at 100 mg/kg, po qd for 5 to 14 days; format: functional, organism-based; design: dose 100 mg/kg
# Vaccinia virus WR [11] = assay: Antiviral activity against Vaccinia virus WR ATCC VR-1354 infected through percutaneous route in BALB/c mouse assessed as reduction of viral load in spleen at 100 mg/kg, po qd for 3 days by RT-PCR analysis relative to control; format: functional
# Vaccinia virus WR [12] = assay: Antiviral activity against Vaccinia virus WR ATCC VR-1354 infected through dermal scarification route in BALB/c mouse assessed as protection against virus-induced systemic disease symptoms at 100 mg/kg, po qd measured after 9 days postinfection; format: functional, organism-based; design: dose 100 mg/kg
# Vaccinia virus WR [13] = assay: Antiviral activity against Vaccinia virus WR ATCC VR-1354 infected through intraperitoneal route in BALB/c mouse assessed as reduction of viral load in spleen at 100 mg/kg, po qd measured after 5 days postinfection by RT-PCR analysis relative to control; format: functional, organism-based; design: dose 100 mg/kg
# Vaccinia virus WR [14] = assay: Antiviral activity against Vaccinia virus WR ATCC VR-1354 infected through dermal scarification route in ACAM2000 vaccinated BALB/c mouse assessed as reduction of swab virus titers at 100 mg/kg, po qd measured after 21 days postinfection by RT-PCR analysis relative to control; format: functional
# Vaccinia virus WR [15] = assay: Antiviral activity against Vaccinia virus WR ATCC VR-1354 infected through percutaneous route in BALB/c mouse assessed as reduction of viral load in lungs at 100 mg/kg, po qd measured after 5 days postinfection by RT-PCR analysis relative to control; format: functional
# Vaccinia virus WR [16] = assay: Antiviral activity against Vaccinia virus WR ATCC VR-1354 infected through percutaneous route in BALB/c mouse assessed as protection against hypothermia at 100 mg/kg, po qd for 1 to 3 days measured on day 2; format: functional, organism-based; design: dose 100 mg/kg
# Vaccinia virus WR [17] = assay: Antiviral activity against Vaccinia virus WR ATCC VR-1354 infected through dermal scarification route in BALB/c mouse assessed as reduction of viral load in liver at 100 mg/kg, po qd measured after 5 days postinfection by RT-PCR analysis relative to control; format: functional
# Vaccinia virus WR [18] = assay: Antiviral activity against Vaccinia virus WR ATCC VR-1354 infected through percutaneous route in BALB/c mouse assessed as protection against weight loss at 100 mg/kg, po qd for 1 to 3 days measured on day 8; format: functional, organism-based; design: dose 100 mg/kg
# Vaccinia virus WR [19] = assay: Antiviral activity against Vaccinia virus WR ATCC VR-1354 infected through intravenous route in BALB/c mouse assessed as reduction of viral load in liver at 100 mg/kg, po qd measured after 3 days postinfection by RT-PCR analysis relative to control; format: functional
# Vaccinia virus WR [20] = assay: Antiviral activity against Vaccinia virus WR ATCC VR-1354 infected through intraperitoneal route in BALB/c mouse assessed as protection against virus-induced satellite lesion formation on tails at 100 mg/kg, po qd measured after 6 days postinfection; format: functional, organism-based; design: dose 100 mg/kg
# Vaccinia virus WR [21] = assay: Antiviral activity against Vaccinia virus WR ATCC VR-1354 infected through dermal scarification route in BALB/c mouse assessed as protection against virus-induced satellite lesion formation on tails at 100 mg/kg, po qd measured after 6 days postinfection; format: functional, organism-based; design: dose 100 mg/kg
# Vaccinia virus WR [22] = assay: Antiviral activity against Vaccinia virus WR ATCC VR-1354 infected through percutaneous route in BALB/c mouse assessed as reduction of viral load in blood at 100 mg/kg, po qd measured after 7 days postinfection by RT-PCR analysis relative to control; format: functional, organism-based; design: dose 100 mg/kg
# Vaccinia virus WR [23] = assay: Antiviral activity against Vaccinia virus WR ATCC VR-1354 infected through percutaneous route in BALB/c mouse assessed as protection against weight loss at 100 mg/kg, po qd for 5 to 14 days measured on day 8; format: functional
# Vaccinia virus WR [24] = assay: Antiviral activity against Vaccinia virus WR ATCC VR-1354 infected through dermal scarification route in BALB/c mouse assessed as reduction of viral load in lung at 100 mg/kg, po qd measured after 5 days postinfection by RT-PCR analysis relative to control; format: functional
# Vaccinia virus WR [25] = assay: Antiviral activity against Vaccinia virus WR ATCC VR-1354 infected through intraperitoneal route in BALB/c mouse assessed as protection against virus-induced conjunctivitis in mouse eyes at 100 mg/kg, po qd measured after 6 days postinfection; format: functional, organism-based; design: dose 100 mg/kg
# Vaccinia virus WR [26] = assay: Antiviral activity against Vaccinia virus WR ATCC VR-1354 infected through dermal scarification route in BALB/c mouse assessed as reduction of viral load in lung at 100 mg/kg, po qd measured after 14 days postinfection by RT-PCR analysis relative to control; format: functional, organism-based; design: dose 100 mg/kg
structure (smiles),measurement,setting,value
O=C(NN1C(=O)[C@@H]2[C@@H]3C=C[C@@H]([C@H]4C[C@@H]34)[C@@H]2C1=O)c1ccc(C(F)(F)F)cc1 [TECOVIRIMAT],fold change (FC),Vaccinia virus WR [1],13
same,Activity,Vaccinia virus WR [2],Active
same,Activity,Vaccinia virus WR [3],Active
same,fold change (FC),Vaccinia virus WR [4],44000
same,Activity,Vaccinia virus WR [5],Active
same,fold change (FC),Vaccinia virus WR [6],16
same,Activity,Vaccinia virus WR [7],Active
same,Activity,Vaccinia virus WR [8],Active
same,Activity,Vaccinia virus WR [9],Active
same,Activity,Vaccinia virus WR [10],Active
same,fold change (FC),Vaccinia virus WR [11],300
same,Activity,Vaccinia virus WR [12],Active
same,Activity,Vaccinia virus WR [13],Active
same,fold change (FC),Vaccinia virus WR [14],3900
same,fold change (FC),Vaccinia virus WR [15],3.5
same,Activity,Vaccinia virus WR [16],inactive
same,fold change (FC),Vaccinia virus WR [17],8
same,Activity,Vaccinia virus WR [18],inactive
same,fold change (FC),Vaccinia virus WR [19],8
same,Activity,Vaccinia virus WR [20],Active
same,Activity,Vaccinia virus WR [21],Active
same,Activity,Vaccinia virus WR [22],Active
same,Activity,Vaccinia virus WR [23],>70%
same,fold change (FC),Vaccinia virus WR [24],18
same,Activity,Vaccinia virus WR [25],Active
same,Activity,Vaccinia virus WR [26],Active
